Measurements as given in publication PMC6133161, “Thiazoles with cyclopropyl fragment as antifungal, anticonvulsant, and anti-Toxoplasma gondii agents: synthesis, toxicity evaluation, and molecular docking study” (Medicinal Chemistry Research, 2018).
Converted amounts (≈) assume the structure as drawn.

What was measured:
Test in all cases: Broth microdilution MIC/MFC, clinical isolate
Type in all cases: cell-based
[1] = test system: C. tropicalis; settings: Candida tropicalis, C. tropicalis clinical strain; for MFC: read-out: MFC; for MIC: read-out: MIC
Excerpt: (§1) In the study of antifungal activity of the compounds 3a–3j, 15 clinical strains of different species of yeasts from Candida species, namely C. albicans, C. dubliniensis C. famata, C. inconspicua, C. krusei, C. tropicalis, C. glabrata, C. lambica, C. kefyr, C. lusitaniae, C. parapsilosis, C. guilliermondii, C. lusitaniae, C. pulcherrima and C. sake were also used. These fungi were isolated by the author (from Department of Pharmaceutical Microbiology of Medical University in Lublin, Poland) from different clinical materials, e.g., from upper respiratory tract of hospitalized patients including cancer patients (i.e., with non-small cell lung cancer or hematological malignancies). Some patients were after pre-operative or post-operative chemotherapy (treated with etoposide or cis-platin given in doses according to the standard procedures), patients with chronic hepatitis C (undergoing peginterferon and ribavirin therapy or without antiviral therapy), patients with diabetes, elderly people, aged of 65 years old or older, staying in close population, such as a care centre and people staying outside the home care. The Ethical Committee of the Medical University of Lublin approved the study protocol (No. KE-0254/75/2011). The isolates were identified by standard diagnostic methods—biochemical microtest, e.g., API 20C AUX, ID 32C, API Candida (bioMérieux) on the basis of assimilation of various substrates. All the used microbial cultures were first subcultured on nutrient agar or Sabouraud agar for bacteria and fungi, respectively. The RPMI 1640 with MOPS (for fungi) were inoculated with the suspensions of fungal species. Microbial suspensions were prepared in sterile saline (0.85% NaCl) with an optical density of 0.5 McFarland standard scale (Wiegand et al. [2008]). Samples containing examined compounds were dissolved in dimethyl sulfoxide (DMSO). Furthermore, fungal suspensions were put onto Petri dishes with solid media containing 2 mg/ml of the tested compounds followed incubation under appropriate conditions. The inhibition of microbial growth was judged by comparison with a control culture prepared without any sample tested. Nystatin (Sigma) was used as a reference antifungal compound. Subsequently MIC minimal inhibitory concentration (MIC) of the compounds was examined by the microdilution broth method, using their two-fold dilutions in RPMI 1640 broth with MOPS prepared in 96-well polystyrene plates. Final concentrations of the compounds ranged from 1000 to 0.0038 µg/ml. Microbial suspensions were prepared in sterile saline with an optical density of 0.5 McFarland standard. Next fungal suspension was added per each well containing broth and various concentrations of the examined compounds. After incubation, the MIC was assessed spectrophotometric as the lowest concentration of the samples showing complete fungal growth inhibition. Appropriate DMSO, growth and sterile controls were carried out. The medium with no tested substances was used as a control (Wiegand et al. [2008]). The minimal fungicidal concentration (MFC) are defined as the lowest concentration of the compounds that is required to kill a particular fungal species. MFC was determined by removing the culture using for MIC determinations from each well and spotting onto appropriate agar medium. The plates were incubated. The lowest compounds concentration with no visible growth observed was assessed as a fungicidal concentration. All the experiments were repeated three times and representative data are presented.
(§2) The MFC/MIC ratios were calculated in order to determine fungicidal (MFC/MIC ≤ 4) or fungistatic (MFC/MIC > 4) effect of the tested compounds (O’Donnell et al. [2010]).

[2] = test system: C. pulcherrima; settings: C. pulcherrima clinical strain; for MFC: read-out: MFC; for MIC: read-out: MIC
Excerpt: as §1, §2

[3] = test system: C. sake; settings: Fermentozyma sake, C. sake clinical strain; for MFC: read-out: MFC; for MIC: read-out: MIC
Excerpt: as §1, §2

[4] = test system: C. lusitaniae; settings: Clavispora lusitaniae, C. lusitaniae clinical strain; for MFC: read-out: MFC; for MIC: read-out: MIC
Excerpt: as §1, §2

[5] = test system: C. famata; settings: Debaryomyces hansenii, C. famata clinical strain; for MFC: read-out: MFC; for MIC: read-out: MIC
Excerpt: as §1, §2

[6] = test system: C. glabrata; settings: Nakaseomyces glabratus, C. glabrata clinical strain; for MFC: read-out: MFC; for MIC: read-out: MIC
Excerpt: as §1, §2

[7] = test system: C. dubliniensis; settings: Candida dubliniensis, C. dubliniensis clinical strain; for MFC: read-out: MFC; for MIC: read-out: MIC
Excerpt: as §1, §2

[8] = test system: C. guilliermondii; settings: Meyerozyma guilliermondii, C. guilliermondii clinical strain; for MFC: read-out: MFC; for MIC: read-out: MIC
Excerpt: as §1, §2

[9] = test system: C. lambica; settings: Pichia fermentans, C. lambica clinical strain; for MFC: read-out: MFC; for MIC: read-out: MIC
Excerpt: as §1, §2

[10] = test system: C. inconspicua; settings: Pichia inconspicua, C. inconspicua clinical strain; for MFC: read-out: MFC; for MIC: read-out: MIC
Excerpt: as §1, §2

[11] = test system: C. kefyr; settings: C. kefyr clinical strain; for MFC / MIC: Kluyveromyces marxianus; for MFC: read-out: MFC; for MIC: read-out: MIC
Excerpt: as §1, §2

[12] = test system: C. parapsilosis; settings: Lodderomyces parapsilosis, C. parapsilosis clinical strain; for MFC: read-out: MFC; for MIC: read-out: MIC
Excerpt: as §1, §2

[13] = test system: C. albicans; settings: Candida albicans, C. albicans clinical strain; for MFC: read-out: MFC; for MIC: read-out: MIC
Excerpt: as §1, §2

[14] = test system: C. krusei; settings: Pichia kudriavzevii, C. krusei clinical strain; for MFC: read-out: MFC; for MIC: read-out: MIC
Excerpt: as §1, §2

SMILES	MFC [1] [µg/mL]	MIC [1] [µg/mL]	MFC [2] [µg/mL]	MIC [2] [µg/mL]	MFC [3] [µg/mL]	MIC [3] [µg/mL]	MFC [4] [µg/mL]	MIC [4] [µg/mL]	MFC [5] [µg/mL]	MIC [5] [µg/mL]	MFC [6] [µg/mL]	MIC [6] [µg/mL]	MFC [7] [µg/mL]	MIC [7] [µg/mL]	MFC [8] [µg/mL]	MIC [8] [µg/mL]	MFC [9] [µg/mL]	MIC [9] [µg/mL]	MFC [10] [µg/mL]	MIC [10] [µg/mL]	also measured
N#Cc1ccc(-c2csc(N/N=C/C3CC3)n2)cc1 [Compound 3h, (E)-4-(2-(2-(Cyclopropylmethylene)hydrazinyl)thiazol-4-yl)benzonitrile]	0.98 (≈ 3.65 µM)	0.03 (≈ 0.112 µM)	> 1000	62.5 (≈ 233 µM)	125 (≈ 466 µM)	0.98 (≈ 3.65 µM)	0.98 (≈ 3.65 µM)	0.24 (≈ 0.894 µM)	3.91 (≈ 14.6 µM)	1.95 (≈ 7.27 µM)	> 1000	125 (≈ 466 µM)	0.98 (≈ 3.65 µM)	0.48 (≈ 1.79 µM)	3.91 (≈ 14.6 µM)	0.48 (≈ 1.79 µM)	> 1000	125 (≈ 466 µM)	0.48 (≈ 1.79 µM)	0.24 (≈ 0.894 µM)	MFC [11]: 125 µg/mL (≈ 466 µM); MIC [11]: 7.81 µg/mL (≈ 29.1 µM); MFC [12]: 31.2 µg/mL (≈ 116 µM); MIC [12]: 1.95 µg/mL (≈ 7.27 µM); MFC [13]: 15.6 µg/mL (≈ 58.2 µM); MIC [13]: 0.98 µg/mL (≈ 3.65 µM); MFC [14]: 7.81 µg/mL (≈ 29.1 µM); MIC [14]: 0.48 µg/mL (≈ 1.79 µM)
COc1ccc(-c2csc(N/N=C/C3CC3)n2)cc1 [Compound 3f, (E)-2-(2-(Cyclopropylmethylene)hydrazinyl)-4-(4-methoxyphenyl)thiazole]	0.98 (≈ 3.59 µM)	0.06 (≈ 0.219 µM)	> 1000	31.2 (≈ 114 µM)	7.81 (≈ 28.6 µM)	0.06 (≈ 0.219 µM)	0.48 (≈ 1.76 µM)	0.12 (≈ 0.439 µM)	7.81 (≈ 28.6 µM)	0.48 (≈ 1.76 µM)	> 1000	31.2 (≈ 114 µM)	0.06 (≈ 0.219 µM)	0.015 (≈ 0.0549 µM)	7.81 (≈ 28.6 µM)	0.48 (≈ 1.76 µM)	> 1000	31.2 (≈ 114 µM)	0.98 (≈ 3.59 µM)	0.03 (≈ 0.11 µM)	MFC/MIC [11]: 4; MFC [11]: 7.81 µg/mL (≈ 28.6 µM); MIC [11]: 1.95 µg/mL (≈ 7.13 µM); MFC [12]: 0.98 µg/mL (≈ 3.59 µM); MIC [12]: 0.12 µg/mL (≈ 0.439 µM); MFC [13]: 0.98 µg/mL (≈ 3.59 µM); MIC [13]: 0.24 µg/mL (≈ 0.878 µM); MFC [14]: 0.015 µg/mL (≈ 0.0549 µM); MIC [14]: 0.015 µg/mL (≈ 0.0549 µM)
Cc1ccc(-c2csc(N/N=C/C3CC3)n2)cc1 [Compound 3d, (E)-2-(2-(Cyclopropylmethylene)hydrazinyl)-4-p-tolylthiazole]	0.12 (≈ 0.466 µM)	0.06 (≈ 0.233 µM)	> 1000	15.6 (≈ 60.7 µM)	0.48 (≈ 1.87 µM)	0.12 (≈ 0.466 µM)	0.48 (≈ 1.87 µM)	0.12 (≈ 0.466 µM)	3.91 (≈ 15.2 µM)	0.48 (≈ 1.87 µM)	> 1000	15.6 (≈ 60.7 µM)	0.12 (≈ 0.466 µM)	0.06 (≈ 0.233 µM)	3.91 (≈ 15.2 µM)	0.48 (≈ 1.87 µM)	> 1000	15.6 (≈ 60.7 µM)	0.98 (≈ 3.81 µM)	0.12 (≈ 0.466 µM)	MFC [11]: 7.81 µg/mL (≈ 30.3 µM); MIC [11]: 1.95 µg/mL (≈ 7.58 µM); MFC [12]: 0.24 µg/mL (≈ 0.933 µM); MIC [12]: 0.06 µg/mL (≈ 0.233 µM); MFC [13]: 0.24 µg/mL (≈ 0.933 µM); MIC [13]: 0.12 µg/mL (≈ 0.466 µM); MFC [14]: 0.98 µg/mL (≈ 3.81 µM); MIC [14]: 0.24 µg/mL (≈ 0.933 µM)
O=[N+]([O-])c1ccc(-c2csc(N/N=C/C3CC3)n2)cc1 [Compound 3j, (E)-2-(2-(Cyclopropylmethylene)hydrazinyl)-4-(4-nitrophenyl)thiazole]	0.015 (≈ 0.052 µM)	0.015 (≈ 0.052 µM)	> 1000	7.81 (≈ 27.1 µM)	0.98 (≈ 3.4 µM)	0.24 (≈ 0.832 µM)	0.98 (≈ 3.4 µM)	0.48 (≈ 1.66 µM)	31.2 (≈ 108 µM)	1.95 (≈ 6.76 µM)	> 1000	125 (≈ 434 µM)	0.48 (≈ 1.66 µM)	0.24 (≈ 0.832 µM)	0.98 (≈ 3.4 µM)	0.24 (≈ 0.832 µM)	> 1000	250 (≈ 867 µM)	1.95 (≈ 6.76 µM)	0.98 (≈ 3.4 µM)	MFC [11]: > 1000 µg/mL; MIC [11]: 125 µg/mL (≈ 434 µM); MFC [12]: 1.95 µg/mL (≈ 6.76 µM); MIC [12]: 0.48 µg/mL (≈ 1.66 µM); MFC [13]: 0.48 µg/mL (≈ 1.66 µM); MIC [13]: 0.24 µg/mL (≈ 0.832 µM); MFC [14]: 0.12 µg/mL (≈ 0.416 µM); MIC [14]: 0.06 µg/mL (≈ 0.208 µM)
